Experimental findings from PMC11714206, “Massively Parallel Screening of Toll/Interleukin‐1 Receptor (TIR)‐Derived Peptides Reveals Multiple Toll‐Like Receptors (TLRs)‐Targeting Immunomodulatory Peptides” (Advanced Science, 2024) are described below.

This assay addresses T1, MAL^TIR (Homo sapiens, UniProt P58753).
T1 construct: MAL (residues 79–221); 6xHis; made in house; host or cells: E. coli BL21 (DE3)
Nature of the assay: T‐Surf phage library (P8 and P3) selection against MAL^TIR, four rounds, NGS read counts. It counts as binding. The note with it: for P3_MAL Rank (after) / P3_MAL Rank (before): P3 library; for P8_MAL Rank (after) / P8_MAL Rank (before): P8 library; for Population: 4th round of selection against MAL TIR, share of NGS reads. As to the method:
T‐Surf libraries were screened against the immobilized TIR domains of two major human TLR adaptor proteins, MAL^TIR and MyD88^TIR, allowing cross‐species selection of TIR‐binding motifs with 190 946 TIR‐derived peptides in a single binding assay (Scheme 1). Enriched phage pools from the fourth round of selection were analyzed using NGS after barcoding the peptide‐coding regions of the phage pools.
Phage display screening was performed by coating two wells of a 96‐well plate (Maxisorp, Thermo Fisher Scientific) with 100 µL of 5 µg mL^−1 TIR domains overnight; then, the coated wells were blocked with 200 µL of blocking buffer (0.2% BSA in PBS) and set aside for 1 h at 4 °C with gentle shaking. Next, 100 µL of the phage library was added to the wells and incubated for 1 h at room temperature (RT; 20 – 22 °C) with gentle shaking. The plate was washed four times with PBS containing 0.5% Tween‐20; the bound phages were eluted by adding 100 µL of 100 mM HCl to each well. The elute was neutralized with 10 µL of 1.0 M Tris‐HCl (pH 11.0). E. coli TG1 cells were grown to the log phase (A600 = ≈0.6), and 1 mL of the culture was incubated with 100 µL of the eluted phages for 30 min at 37 °C, with shaking at 200 rpm. Next, 1 µL of M13KO7 helper phages was added, followed by incubation for 45 min at 37 °C, with shaking. Subsequently, the cells were transferred to 25 mL of 2× yeast extract tryptone/carbenicillin/kanamycin medium and incubated overnight at 37 °C with shaking at 200 rpm. The amplified phages were precipitated with 20% PEG‐8000/2.5 M NaCl to be used for the next round of selection.
The naïve T‐Surf libraries in P8 and P3 and the enriched phage pools after four rounds were barcoded for NGS as previously described.^[ [59] ^] Briefly, 5 µL of the phage pool was used as a template for 20 cycles of a 50 µL PCR reaction using […] each of forward and reverse barcoded primers and PrimeSTAR Max DNA Polymerase. The PCR products were purified using Expin Gel SV (GeneAll). The NGS samples were quantified using qPCR, following the qPCR Quantification Protocol Guide (KAPA Library Quantification kits for Illumina Sequencing Platform), and qualified using the TapeStation High Sensitivity D1000 ScreenTape (Agilent Technologies). The indexed libraries were further sequenced by Macrogen (Seoul, Republic of Korea) using the NovaSeq platform (Illumina) with 100 bp paired‐end reads. The reads were demultiplexed by barcodes and filtered for an average Phred quality score of at least 30, followed by trimming the flanking consensus sequences using Cutadapt (version 2.3). Peptide sequence populations were analyzed according to the read counts.

Setting [1] is: selection against MAL, rank by count after grouping.
[2] abbreviates: selection against MAL, rank by count before grouping.
Setting [3] is: 4R selection against MAL, rank after grouping.
Setting [4] is: 4R selection against MAL, rank before grouping.
The mark [5] stands for this setting: selection against MAL, rank after grouping.
[6] abbreviates: selection against MAL, rank before grouping.
Setting [7] is: P3_MAL pool: P3 T-Surf phage library.
Setting [8] is: selection against MAL TIR, rank by count after grouping.
Setting [9] is: selection against MAL TIR, rank by count before grouping.
Setting [10] is: P8_MAL pool: P8 T-Surf phage library.
Where [11] appears, read: P8_MAL: rank by count after grouping.
The mark [12] stands for this setting: P8_MAL: rank by count before grouping.
Setting [13] is: P3_MAL: rank by count after grouping.
Where [14] appears, read: P3_MAL: rank by count before grouping.

T1 sequence (P58753 79-221): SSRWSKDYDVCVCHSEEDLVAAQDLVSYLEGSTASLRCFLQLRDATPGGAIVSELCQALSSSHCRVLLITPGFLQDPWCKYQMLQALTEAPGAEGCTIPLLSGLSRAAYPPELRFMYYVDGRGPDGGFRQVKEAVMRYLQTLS

Consider NDVEGCRDALTKVASL, for which the “P3_MAL Rank (after)” value under setting [1] came out at 679. Besides, the “P3_MAL Rank (before)” value under setting [2] is given as 3278. Regarding TFLGHLYNTLVQACIH, the “P8_MAL Rank (after)” value under setting [3] is reported as 650. Further, the “P8_MAL Rank (before)” value under setting [4] is given as 2598. For TFLGAQHKTVVRAATH, the “P8_MAL Rank (after)” value under setting [5] is recorded as 524. Besides, the “P8_MAL Rank (before)” value under setting [6] amounted to 2534. Regarding LNLRTKVLNYLMRTKT, under setting [7], the Population was determined as 0.00488%. Take AFFGAQLKSVLRNPTM: under setting [8], the “P8_MAL Rank (after)” value is 191. Moreover, under setting [9], the “P8_MAL Rank (before)” value is given as 1739. In the case of WFYERLVSLILRVTKV, the Population under setting [10] worked out at 0.00309%. In the case of QLIQQWIELHAPAAS, under setting [11], the “Rank (after)” value amounted to 151. Besides, under setting [12], the “Rank (before)” value worked out at 969.

RNFVADLFQALADKGI: the “P8_MAL Rank (after)” value under setting [3] is given as 666. Moreover, under setting [4], the “P8_MAL Rank (before)” value is given as 2308. Take AFFLGAAEKRAGQSDDX: the Population under setting [10] was determined as 0.00371%. Take RNFVADLYQALANKGI: the “Rank (after)” value under setting [11] stood at 131. For the same sequence, the “Rank (before)” value under setting [12] came to 2186.

In the case of YFLHFMLFRRRGTEYI, the “Rank (after)” value under setting [11] worked out at 439. Further, the “Rank (before)” value under setting [12] was 1507. For SFFWNKLRYILPAPNN, the “P3_MAL Rank (after)” value under setting [3] stood at 596. The “P3_MAL Rank (before)” value under setting [4] is on record as 3013. For RLLKWNEELHLFHSWV the same measures were 612 and 2490. AFLWAQLNSVLGNPTM: under setting [11], the “Rank (after)” value is recorded as 156. The “Rank (before)” value under setting [12] is listed as 1778. For the sequence GCLYQAFARAGFKIFM, the “P3_MAL Rank (after)” value under setting [1] worked out at 707. Moreover, under setting [2], the “P3_MAL Rank (before)” value stood at 1752. For DSHSSRFKEDAELGGQ the same measures were 687 and 1963. As for VELAQVRKQRDAGEKV, the “Rank (after)” value under setting [13] turned out to be 412. In addition, under setting [14], the “Rank (before)” value was 1644.

WFYEHLVSLILRDTKV yielded a Population under setting [10] of 0.00371%.

On to AILYTFLINLTLPANF, for which the “P8_MAL Rank (after)” value under setting [1] was determined as 682. For the same sequence, the “P8_MAL Rank (before)” value under setting [2] came out at 1576. Consider HFFWVKLKSILGETSL, for which the “P8_MAL Rank (after)” value under setting [3] is on record as 592. Besides, the “P8_MAL Rank (before)” value under setting [4] stood at 2396. Take AFFGEQLVTGLAKRSS: under setting [5], the “P8_MAL Rank (after)” value is 568. Also, the “P8_MAL Rank (before)” value under setting [6] was 1742. Sequence YAFTGHLHRSLVQRGV displayed a Population under setting [7] of 0.00413%.

In the case of HHNSSYGEALAEHEKR, the “Rank (after)” value under setting [13] came to 167. In addition, the “Rank (before)” value under setting [14] is 2817.

For the sequence QLIQPWMELHLHQLHL, under setting [8], the “P8_MAL Rank (after)” value was 246. Under setting [9], the “P8_MAL Rank (before)” value came out at 2346. Under setting [7], YAFTGHLHRYLVQRGL came in with a Population of 0.00376%.

In the case of RFWERLRYMMPDSSL, the “Rank (after)” value under setting [13] is reported as 449. Besides, under setting [14], the “Rank (before)” value turned out to be 2320. Regarding AFLWTYLSNLMHQPTF, the “P8_MAL Rank (after)” value under setting [5] is 483. For the same sequence, the “P8_MAL Rank (before)” value under setting [6] was determined as 1797. HLLKWKEALHQFHSWV yielded a Population under setting [7] of 0.00488%. In the case of NSFRERLRHLMAHSKM, under setting [3], the “P3_MAL Rank (after)” value is listed as 620. In addition, the “P3_MAL Rank (before)” value under setting [4] is reported as 3479.

On to FMSHLYRYLVQRGV, for which the “P3_MAL Rank (after)” value under setting [5] is given as 546. Further, the “P3_MAL Rank (before)” value under setting [6] was 1200.

For the sequence FTLSVHVRNWLAGAFI, the “P8_MAL Rank (after)” value under setting [3] is 606. The “P8_MAL Rank (before)” value under setting [4] is given as 1091. Consider WFYARLVRLILRDPKV, for which the “Rank (after)” value under setting [11] was found to be 419. The “Rank (before)” value under setting [12] was 1135. For NQWRNSLTAAANLSCW, the “P3_MAL Rank (after)” value under setting [8] is on record as 204. Also, under setting [9], the “P3_MAL Rank (before)” value amounted to 3341.

On to AFLYTFLGHLYNALVQAGIH, for which the “P8_MAL Rank (after)” value under setting [5] stood at 497. Under setting [6], the “P8_MAL Rank (before)” value stood at 1828.
